# Source: paper PMC5218480 (PLoS ONE, 2017)
# Tested on: MV-4-11 cells
# Experiment: Gene expression microarray analysis (Affymetrix PrimeView) and GSEA
# Format: cell-based, human
# Parameters: RFU PODN (11730768_x_at) / Fold change /veh PODN (11730768_x_at) / RFU LINC00158 (11744669_a_at) / Fold change /veh LINC00158 (11744669_a_at) / RFU DUSP10 (11751237_a_at) / Fold change /veh DUSP10 (11751237_a_at) / RFU ID3 (11757404_x_at) / Fold change /veh ID3 (11757404_x_at) / RFU PLEKHG5 (11737974_s_at) / Fold change /veh PLEKHG5 (11737974_s_at) / RFU LRRC4B (11730491_at) / Fold change /veh LRRC4B (11730491_at) / RFU GIMAP4 (11747438_a_at) / Fold change /veh GIMAP4 (11747438_a_at) / RFU KRT8 (11758183_x_at) / Fold change /veh KRT8 (11758183_x_at) / RFU CNN1 (11734310_a_at) / Fold change /veh CNN1 (11734310_a_at) / RFU VPS37D (11726825_at) / Fold change /veh VPS37D (11726825_at) / RFU C10orf10 (11716522_x_at) / Fold change /veh C10orf10 (11716522_x_at) / RFU KIR2DL2 /// KIR2DL4 /// KIR2DL5A /// KIR2DL5B /// KIR2DS1 /// KIR2DS2 /// KIR2DS3 /// KIR2DS4 /// KIR3DL3 /// KIR3DL3 /// KIR3DS1 (11738374_at) / Fold change /veh KIR2DL2 /// KIR2DL4 /// KIR2DL5A /// KIR2DL5B /// KIR2DS1 /// KIR2DS2 /// KIR2DS3 /// KIR2DS4 /// KIR3DL3 /// KIR3DL3 /// KIR3DS1 (11738374_at) / RFU C1QL1 (11718748_at) / Fold change /veh C1QL1 (11718748_at) / RFU TMPRSS4 (11747572_a_at) / Fold change /veh TMPRSS4 (11747572_a_at) / RFU HAMP (11756126_x_at) / Fold change /veh HAMP (11756126_x_at) / RFU RNFT2 (11725882_a_at) / Fold change /veh RNFT2 (11725882_a_at) / RFU NR4A2 (11747474_a_at) / Fold change /veh NR4A2 (11747474_a_at) / RFU ABCC12 (11746883_a_at) / Fold change /veh ABCC12 (11746883_a_at) / RFU TMEM136 (11760407_x_at) / Fold change /veh TMEM136 (11760407_x_at) / RFU CLDN22 /// WWC2 (11732394_at) / Fold change /veh CLDN22 /// WWC2 (11732394_at) / RFU HLA-DPB1 (11760878_x_at) / Fold change /veh HLA-DPB1 (11760878_x_at) / RFU SPINT1 (11716480_a_at) / Fold change /veh SPINT1 (11716480_a_at) / RFU GAP43 (11754022_s_at) / Fold change /veh GAP43 (11754022_s_at) / RFU A4GNT (11735810_at) / Fold change /veh A4GNT (11735810_at) / RFU PRB3 (11715151_x_at) / Fold change /veh PRB3 (11715151_x_at) / RFU TUBB4B (11761932_at) / Fold change /veh TUBB4B (11761932_at) / RFU CAPN14 (11732068_a_at) / Fold change /veh CAPN14 (11732068_a_at) / RFU TMCC2 (11721928_a_at) / Fold change /veh TMCC2 (11721928_a_at) / RFU IRGQ (11745062_a_at) / Fold change /veh IRGQ (11745062_a_at) / RFU FAM174B (11720279_a_at) / Fold change /veh FAM174B (11720279_a_at) / RFU TMPRSS4 (11748680_a_at) / Fold change /veh TMPRSS4 (11748680_a_at) / RFU FAM212B (11763350_a_at) / Fold change /veh FAM212B (11763350_a_at) / RFU PLEKHG5 (11743358_a_at) / Fold change /veh PLEKHG5 (11743358_a_at) / RFU ZSCAN30 (11745921_a_at) / Fold change /veh ZSCAN30 (11745921_a_at) / RFU CMKLR1 (11741424_a_at) / Fold change /veh CMKLR1 (11741424_a_at) / RFU LOC101060620 /// MAPK8IP1 (11723275_at) / Fold change /veh LOC101060620 /// MAPK8IP1 (11723275_at) / RFU SPTSSB (11747773_x_at) / Fold change /veh SPTSSB (11747773_x_at) / RFU PRSS12 (11739890_at) / Fold change /veh PRSS12 (11739890_at) / RFU BIN1 (11741810_x_at) / Fold change /veh BIN1 (11741810_x_at) / RFU WNT11 (11732464_a_at) / Fold change /veh WNT11 (11732464_a_at) / RFU C10orf10 (11716521_a_at) / Fold change /veh C10orf10 (11716521_a_at) / RFU C5orf56 (11738089_at) / Fold change /veh C5orf56 (11738089_at) / RFU CYB561 (11721691_x_at) / Fold change /veh CYB561 (11721691_x_at) / RFU ANKRD19P (11752326_a_at) / Fold change /veh ANKRD19P (11752326_a_at) / RFU OR2T12 /// OR2T33 /// OR2T8 (11738714_s_at) / Fold change /veh OR2T12 /// OR2T33 /// OR2T8 (11738714_s_at) / RFU VCAN (11748164_a_at) / Fold change /veh VCAN (11748164_a_at) / RFU JSRP1 (11732532_at) / Fold change /veh JSRP1 (11732532_at) / RFU KRTAP10-11 (11738290_x_at) / Fold change /veh KRTAP10-11 (11738290_x_at) / RFU MYO3A (11730013_a_at) / Fold change /veh MYO3A (11730013_a_at) / RFU EBF3 (11725865_a_at) / Fold change /veh EBF3 (11725865_a_at) / RFU CAMK2N1 (11719241_x_at) / Fold change /veh CAMK2N1 (11719241_x_at) / RFU C5orf56 (11738088_a_at) / Fold change /veh C5orf56 (11738088_a_at) / RFU OLFML3 (11715873_a_at) / Fold change /veh OLFML3 (11715873_a_at) / RFU LOC100653217 /// NTM (11731650_a_at) / Fold change /veh LOC100653217 /// NTM (11731650_a_at) / RFU MAPK11 (11762145_a_at) / Fold change /veh MAPK11 (11762145_a_at) / RFU FIZ1 (11724087_x_at) / Fold change /veh FIZ1 (11724087_x_at) / RFU OASL (11726364_x_at) / Fold change /veh OASL (11726364_x_at) / RFU SOX15 (11748057_x_at) / Fold change /veh SOX15 (11748057_x_at) / RFU CD79A (11719716_a_at) / Fold change /veh CD79A (11719716_a_at) / RFU HIST1H1D (11736915_at) / Fold change /veh HIST1H1D (11736915_at) / RFU CASKIN2 (11723855_a_at) / Fold change /veh CASKIN2 (11723855_a_at) / RFU LOC730098 (11760151_x_at) / Fold change /veh LOC730098 (11760151_x_at) / RFU OR4N2 (11742367_at) / Fold change /veh OR4N2 (11742367_at) / RFU PRRT2 (11749266_a_at) / Fold change /veh PRRT2 (11749266_a_at) / RFU SNX32 (11753110_a_at) / Fold change /veh SNX32 (11753110_a_at) / RFU CDHR5 (11726645_a_at) / Fold change /veh CDHR5 (11726645_a_at) / RFU RCAN1 (11760418_a_at) / Fold change /veh RCAN1 (11760418_a_at) / RFU FAM167A (11723789_a_at) / Fold change /veh FAM167A (11723789_a_at) / RFU FAM26E (11764081_at) / Fold change /veh FAM26E (11764081_at) / RFU ISYNA1 (11749810_s_at) / Fold change /veh ISYNA1 (11749810_s_at) / RFU ACY1 (11761880_at) / Fold change /veh ACY1 (11761880_at) / RFU 11764098_at / Fold change /veh 11764098_at / RFU SAMD14 (11745864_x_at) / Fold change /veh SAMD14 (11745864_x_at) / RFU NPB (11741838_a_at) / Fold change /veh NPB (11741838_a_at) / RFU TMPRSS6 (11731388_a_at) / Fold change /veh TMPRSS6 (11731388_a_at) / RFU KRTAP10-2 (11738614_at) / Fold change /veh KRTAP10-2 (11738614_at) / RFU ARHGAP8 /// PRR5-ARHGAP8 (11727945_x_at) / Fold change /veh ARHGAP8 /// PRR5-ARHGAP8 (11727945_x_at) / RFU KRTAP5-7 /// NADSYN1 (11734609_at) / Fold change /veh KRTAP5-7 /// NADSYN1 (11734609_at) / RFU RASL12 (11751679_a_at) / Fold change /veh RASL12 (11751679_a_at) / RFU CDKN2B (11736163_a_at) / Fold change /veh CDKN2B (11736163_a_at) / RFU PRF1 (11729649_at) / Fold change /veh PRF1 (11729649_at) / RFU, ZNF638 /// ZNF638-IT1 / Fold change vs veh, ZNF638 /// ZNF638-IT1 / RFU, PANK3 / Fold change vs veh, PANK3 / RFU, SH3YL1 / Fold change vs veh, SH3YL1 / RFU, ZEB2 / Fold change vs veh, ZEB2 / RFU, NRIP1 / Fold change vs veh, NRIP1 / RFU, PTTG1IP / Fold change vs veh, PTTG1IP / RFU, CAPN2 / Fold change vs veh, CAPN2 / RFU, MED14 / Fold change vs veh, MED14 / RFU, SNORA58 / Fold change vs veh, SNORA58 / RFU, C1orf63 / Fold change vs veh, C1orf63 / RFU, LRRFIP1 / Fold change vs veh, LRRFIP1 / RFU, NDUFAF7 / Fold change vs veh, NDUFAF7 / RFU, SLC12A2 / Fold change vs veh, SLC12A2 / RFU, IBTK / Fold change vs veh, IBTK / RFU, ESF1 / Fold change vs veh, ESF1 / Fold change vs veh, TMEM50B / RFU, TAOK1 / Fold change vs veh, TAOK1 / RFU, ACBD3 / Fold change vs veh, ACBD3 / RFU, TMA16 / Fold change vs veh, TMA16 / RFU, RWDD3 / Fold change vs veh, RWDD3 / RFU, BCAT1 / Fold change vs veh, BCAT1 / RFU, EDEM3 / Fold change vs veh, EDEM3 / RFU, TMEM33 / Fold change vs veh, TMEM33 / RFU, WDR75 / Fold change vs veh, WDR75 / RFU, AHCTF1 / Fold change vs veh, AHCTF1 / RFU, TFRC / Fold change vs veh, TFRC / RFU, ZDHHC17 / Fold change vs veh, ZDHHC17 / RFU, NOM1 / Fold change vs veh, NOM1 / RFU, ARL8B / Fold change vs veh, ARL8B / RFU, ZBTB11 / Fold change vs veh, ZBTB11 / RFU, TAMM41 / Fold change vs veh, TAMM41 / RFU, KIAA1704 /// LOC100996395 / Fold change vs veh, KIAA1704 /// LOC100996395 / RFU, ING1 / Fold change vs veh, ING1 / RFU, TRMT61B / Fold change vs veh, TRMT61B / RFU, FUBP3 / Fold change vs veh, FUBP3 / RFU, TP53 / Fold change vs veh, TP53 / RFU, TNKS2 / Fold change vs veh, TNKS2 / RFU, ZFP14 / Fold change vs veh, ZFP14 / RFU, ACTR2 / Fold change vs veh, ACTR2 / RFU, PPP3R1 / Fold change vs veh, PPP3R1 / RFU, PIK3R1 / Fold change vs veh, PIK3R1 / RFU, HNRNPA1 / Fold change vs veh, HNRNPA1 / RFU, RNF170 / Fold change vs veh, RNF170 / RFU, ZNF28 / Fold change vs veh, ZNF28 / RFU, RNGTT / Fold change vs veh, RNGTT / RFU, OGT / Fold change vs veh, OGT / RFU, BRD1 / Fold change vs veh, BRD1 / RFU, MARS / Fold change vs veh, MARS / RFU, ZNF655 / Fold change vs veh, ZNF655 / RFU, FAHD1 / Fold change vs veh, FAHD1 / RFU, BDP1 / Fold change vs veh, BDP1 / RFU, LRRCC1 / Fold change vs veh, LRRCC1 / RFU, ARID1A / Fold change vs veh, ARID1A / RFU, ZNF146 / Fold change vs veh, ZNF146 / RFU, ZNF330 / Fold change vs veh, ZNF330 / RFU, GPN3 / Fold change vs veh, GPN3 / RFU, C9orf123 / Fold change vs veh, C9orf123 / RFU, N4BP2L2 / Fold change vs veh, N4BP2L2 / RFU, ARFIP1 / Fold change vs veh, ARFIP1 / RFU, FAM179B / Fold change vs veh, FAM179B / RFU, BCL10 / Fold change vs veh, BCL10 / RFU, UHRF1BP1L / Fold change vs veh, UHRF1BP1L / RFU, BET1 / Fold change vs veh, BET1 / RFU, CNOT2 / Fold change vs veh, CNOT2 / RFU, ZNF268 / Fold change vs veh, ZNF268 / Fold change vs veh, ZNF507 / RFU, DGCR2 / Fold change vs veh, DGCR2 / RFU, WDSUB1 / Fold change vs veh, WDSUB1 / Fold change vs veh, HSP90B1 /// MIR3652 / RFU, ADSS / Fold change vs veh, ADSS / RFU, GK / Fold change vs veh, GK / RFU, ZNF148 / Fold change vs veh, ZNF148 / RFU, TAF9 / Fold change vs veh, TAF9 / RFU, SLC1A5 / Fold change vs veh, SLC1A5 / RFU, SLMO2 / Fold change vs veh, SLMO2 / RFU, ABCC4 / Fold change vs veh, ABCC4 / RFU, LOC101060439 /// RAP1B / Fold change vs veh, LOC101060439 /// RAP1B / RFU, RFX7 / Fold change vs veh, RFX7 / RFU, GTPBP10 / Fold change vs veh, GTPBP10 / RFU, CNEP1R1 / Fold change vs veh, CNEP1R1 / RFU, BIVM-ERCC5 /// ERCC5 / Fold change vs veh, BIVM-ERCC5 /// ERCC5 / RFU, ILF3 / Fold change vs veh, ILF3 / RFU 11762660_at / Fold change /veh 11762660_at / RFU VCAN (11757783_s_at) / Fold change /veh VCAN (11757783_s_at) / RFU DDX43 (11728927_at) / Fold change /veh DDX43 (11728927_at) / RFU KRT8 (11758188_x_at) / Fold change /veh KRT8 (11758188_x_at) / RFU NKD1 (11759106_at) / Fold change /veh NKD1 (11759106_at) / RFU SRD5A1 (11742802_a_at) / Fold change /veh SRD5A1 (11742802_a_at) / RFU TPSAB1 /// TPSB2 (11721975_s_at) / Fold change /veh TPSAB1 /// TPSB2 (11721975_s_at) / RFU GSTM3 (11746129_a_at) / Fold change /veh GSTM3 (11746129_a_at) / RFU IL23R (11737362_x_at) / Fold change /veh IL23R (11737362_x_at) / RFU TMEM51 (11727254_a_at) / Fold change /veh TMEM51 (11727254_a_at) / RFU PIWIL2 (11732686_x_at) / Fold change /veh PIWIL2 (11732686_x_at) / RFU ORM1 (11744905_x_at) / Fold change /veh ORM1 (11744905_x_at) / RFU CCDC152 (11743942_at) / Fold change /veh CCDC152 (11743942_at) / RFU ECM1 (11717891_a_at) / Fold change /veh ECM1 (11717891_a_at) / RFU IL23R (11748794_a_at) / Fold change /veh IL23R (11748794_a_at) / RFU TNFAIP8L3 (11732012_x_at) / Fold change /veh TNFAIP8L3 (11732012_x_at) / RFU MBOAT4 (11741988_at) / Fold change /veh MBOAT4 (11741988_at) / RFU 11764193_at / Fold change /veh 11764193_at / RFU TMEM53 (11763286_at) / Fold change /veh TMEM53 (11763286_at) / RFU MAGEB2 (11727129_at) / Fold change /veh MAGEB2 (11727129_at) / RFU TMEM200A (11744735_a_at) / Fold change /veh TMEM200A (11744735_a_at) / RFU CCDC152 (11751479_a_at) / Fold change /veh CCDC152 (11751479_a_at) / RFU FAM211A (11726209_a_at) / Fold change /veh FAM211A (11726209_a_at) / RFU RGS16 (11746705_a_at) / Fold change /veh RGS16 (11746705_a_at) / RFU VCAN (11755009_s_at) / Fold change /veh VCAN (11755009_s_at) / RFU RHOB (11743442_s_at) / Fold change /veh RHOB (11743442_s_at) / RFU RGS16 (11720943_a_at) / Fold change /veh RGS16 (11720943_a_at) / RFU RGS16 (11720944_at) / Fold change /veh RGS16 (11720944_at) / RFU, VPS4B / Fold change vs veh, VPS4B / RFU, CREB1 / Fold change vs veh, CREB1 / RFU, DNAJC13 / Fold change vs veh, DNAJC13 / RFU, GNAQ / Fold change vs veh, GNAQ / RFU, CDK5R1 / Fold change vs veh, CDK5R1 / RFU, ZRANB3 / Fold change vs veh, ZRANB3 / RFU, CUL4A / Fold change vs veh, CUL4A / RFU, CCNY / Fold change vs veh, CCNY / RFU, UFL1 / Fold change vs veh, UFL1 / RFU, COG3 / Fold change vs veh, COG3 / RFU, DIAPH2 / Fold change vs veh, DIAPH2 / RFU, SKA2 / Fold change vs veh, SKA2 / RFU, AFF3 / Fold change vs veh, AFF3 / RFU, LMF1 / Fold change vs veh, LMF1 / RFU, IPO11 / Fold change vs veh, IPO11 / RFU, DFFB / Fold change vs veh, DFFB / RFU, FOXP1 / Fold change vs veh, FOXP1 / RFU, CARD8 / Fold change vs veh, CARD8 / RFU, STRN3 / Fold change vs veh, STRN3 / RFU, ADK / Fold change vs veh, ADK / RFU, RASSF2 / Fold change vs veh, RASSF2 / RFU, WIPF1 / Fold change vs veh, WIPF1 / RFU, LARP1B / Fold change vs veh, LARP1B / RFU, RASA1 / Fold change vs veh, RASA1 / RFU, RB1 / Fold change vs veh, RB1 / RFU, PPFIA1 / Fold change vs veh, PPFIA1 / RFU, MAT2A / Fold change vs veh, MAT2A / RFU, CCT5 / Fold change vs veh, CCT5 / RFU, WDR92 / Fold change vs veh, WDR92 / RFU, CUX1 / Fold change vs veh, CUX1 / RFU, TTC7A / Fold change vs veh, TTC7A / RFU, TMEM135 / Fold change vs veh, TMEM135 / RFU, DEPTOR / Fold change vs veh, DEPTOR / RFU, CPM / Fold change vs veh, CPM / RFU, DNAJB6 / Fold change vs veh, DNAJB6 / RFU, CACNA2D3 / Fold change vs veh, CACNA2D3 / RFU, DTX4 / Fold change vs veh, DTX4 / RFU, TFCP2 / Fold change vs veh, TFCP2 / RFU, GMCL1 /// GMCL1P1 / Fold change vs veh, GMCL1 /// GMCL1P1 / RFU, AEBP2 / Fold change vs veh, AEBP2 / RFU, SNHG1 /// SNORD22 /// SNORD25 /// SNORD26 /// SNORD27 /// SNORD28 /// SNORD29 /// SNORD31 / Fold change vs veh, SNHG1 /// SNORD22 /// SNORD25 /// SNORD26 /// SNORD27 /// SNORD28 /// SNORD29 /// SNORD31 / Fold change (Aza/veh), C12orf56 (ProbeSet 11735607_a_at) / Fold change (ACY-1035/veh), C12orf56 (ProbeSet 11735607_a_at) / Fold change (Aza/veh), FGFR1OP (ProbeSet 11751329_s_at) / Fold change (ACY-1035/veh), FGFR1OP (ProbeSet 11751329_s_at) / Fold change (Aza/veh), VPS36 (ProbeSet 11739960_a_at) / Fold change (ACY-1035/veh), VPS36 (ProbeSet 11739960_a_at) / RFU SYPL1 (11715823_x_at) / Fold change /veh SYPL1 (11715823_x_at) / RFU IGFBP7 (11715501_s_at) / Fold change /veh IGFBP7 (11715501_s_at) / RFU REEP3 (11722064_at) / Fold change /veh REEP3 (11722064_at) / RFU IGLL1 (11728026_x_at) / Fold change /veh IGLL1 (11728026_x_at): dose or concentration left out as unconfirmed
# Settings: ProbeSet 11753623_s_at; LIST D
smiles,measurement,value
Nc1ncn([C@@H]2O[C@H](CO)[C@@H](O)[C@H]2O)c(=O)n1 [azacitidine],"RFU, LOC101060439 /// RAP1B",283.36 RFU
